Each structure is given as a SMILES string. Read-outs that look alike come from different tables or passages of the source.

The assay relates to Trichomonas vaginalis G3 trophozoites.
The mark [1] stands for this setting: HTS, parasite screen at 1 µg/mL, replicate 1.
[2] abbreviates: HTS, parasite screen at 1 µg/mL, replicate 1, raw absorbance.
[3] abbreviates: HTS, parasite screen at 1 µg/mL, replicate 2.
[4] abbreviates: HTS, parasite screen at 1 µg/mL, replicate 2, raw absorbance.
Setting [5] is: 384-well, 25 μL, 10,000 cells/mL, 48 h, biological duplicates; hit = >50% inhibition.

For the compound `Cc1c2c(c(O)c3c(O)ccc(Cl)c13)C(=O)C1(O)C(O)=C(C(N)=O)C(=O)C(N(C)C)C1C2.Cl` (stereo not shown), the T.vaginalis_%inb_Rep1 under setting [1] is on record as 10.90%. The compound further displayed a T.vaginalis_Absorbance_Rep1 under setting [2] of 0.917. Under setting [3], this compound yielded a T.vaginalis_%inb_Rep2 of 9.56%. Also, the T.vaginalis_Absorbance_Rep2 under setting [4] was found to be 0.784.

For `CN[C@@H]1C[C@H]2O[C@@](C)([C@@H]1OC)n1c3ccccc3c3c4c(c5c6ccccc6n2c5c31)C(=O)NC4=O` [7-oxostaurosporine, reference compound], the “T. vaginalis HTS result in words” value under setting [5] is listed as “active analogues”.

With `CO[C@H]1/C=C\C=C(/C)C(=O)NC2=CC(=O)C(NCCN(C)C)=C(C[C@@H](C)C[C@H](OC)[C@H](O)[C@@H](C)/C=C(\C)[C@@H]1OC(N)=O)C2=O` [17-DAAG, 17-dimethylaminoethylamino-17-demethoxygeldanamycin, reference compound], under setting [5], the “T. vaginalis HTS result in words” value is reported as “partial hits”.

With `COc1ccc(/C=C/C(=O)O)cc1O` [BIA-I1729], the T.vaginalis_%inb_Rep1 (replicate 1; parasite screen at 1 µg/mL) came to 11.16%. Where the note is “replicate 2; parasite screen at 1 µg/mL”, this compound gave a T.vaginalis_%inb_Rep2 of 13.98%.

On to `CN(C)[C@@H]1C(O)=C(C(N)=O)C(=O)[C@@]2(O)C(O)=C3C(=O)c4c(O)cccc4[C@@](C)(O)[C@H]3C[C@@H]12` [BIA-T1334], for which the T.vaginalis_%inb_Rep1 (parasite screen at 1 µg/mL, replicate 1) turned out to be 9.28%. The compound further showed a T.vaginalis_%inb_Rep2 (parasite screen at 1 µg/mL, replicate 2) of 5.48%.

Compound `CC1=CCCC(C)C(O)C(C)C(O)CCC=CC(C)C(O)C=CC(C)C(O)C(C)=CC(O[C@H]2O[C@H](CO)[C@@H](O)[C@H](O)[C@@H]2O)C(O)CC(O)CC(O)CC(O)C(C)C(O)C(C)C(O)CC(O)CC(O)C=CCC(C(C)C(O)CCCN)OC1=O` (stereo partly shown) [Desertomycin A] yielded a T.vaginalis_%inb_Rep1 under setting [1] of 12.39%. For the same compound, the T.vaginalis_Absorbance_Rep1 under setting [2] turned out to be 0.939. The same compound returned a T.vaginalis_%inb_Rep2 under setting [3] of 12.87%. The T.vaginalis_Absorbance_Rep2 under setting [4] was 0.798.

Take `CC(=O)c1c(O)cc(O)c(C(C)=O)c1O` [Diacetylphloroglucinol]: the T.vaginalis_%inb_Rep1 under setting [1] is 9.32%. Also, under setting [2], the T.vaginalis_Absorbance_Rep1 was 0.882. This compound also displayed a T.vaginalis_%inb_Rep2 under setting [3] of 10.70%. For the same compound, the T.vaginalis_Absorbance_Rep2 under setting [4] was found to be 0.768.

As for `O=C(O)C1CSC(c2ccccc2O)=N1` (stereo not shown) [Dihydroaeruginoic acid], under setting [1], the T.vaginalis_%inb_Rep1 turned out to be 11.15%. Under setting [2], this compound yielded a T.vaginalis_Absorbance_Rep1 of 0.916. Under setting [3], this compound gave a T.vaginalis_%inb_Rep2 of 12.87%. This compound registered a T.vaginalis_Absorbance_Rep2 under setting [4] of 0.798.

As to `CC(C)CCC[C@@H](C)[C@@H]1CC[C@]2(C)C3=C(CC[C@@]12C)[C@@]1(C)CC[C@H](O)C(C)(C)[C@@H]1CC3` [Dihydroeuphol], the T.vaginalis_%inb_Rep1 under setting [1] is 14.92%. Besides, the T.vaginalis_Absorbance_Rep1 under setting [2] came out at 0.986. The same compound returned a T.vaginalis_%inb_Rep2 under setting [3] of 10.05%. Besides, the T.vaginalis_Absorbance_Rep2 under setting [4] came out at 0.759.

`COC1C(OC(N)=O)C(O)C(Oc2ccc3c(O)c(NC(=O)c4ccc(O)c(CCC(C)C)c4)c(=O)oc3c2C)OC1(C)C` (stereo not shown) [Dihydronovobiocin] returned a T.vaginalis_%inb_Rep1 under setting [1] of 2.80%. Under setting [2], this compound displayed a T.vaginalis_Absorbance_Rep1 of 0.761. The same compound had a T.vaginalis_%inb_Rep2 under setting [3] of 4.84%. Under setting [4], this compound yielded a T.vaginalis_Absorbance_Rep2 of 0.687.

As to `CC[C@]1(C)C[C@@H](OC(=O)CO)[C@]2(C)[C@H](C)CC[C@]3(CCC(=O)[C@H]32)[C@@H](C)[C@@H]1O` [Dihydropleuromutilin], the T.vaginalis_%inb_Rep1 under setting [1] came out at 14.27%. This compound displayed a T.vaginalis_Absorbance_Rep1 under setting [2] of 0.974. Also, the T.vaginalis_%inb_Rep2 under setting [3] worked out at 13.23%. This compound had a T.vaginalis_Absorbance_Rep2 under setting [4] of 0.803.

The compound `CC[C@H]1CCC[C@H](O)[C@@H](C)C(=O)C2=C[C@H]3[C@@H]4C[C@H](O)C[C@H]4CC[C@H]3[C@@H]2CC(=O)O1` [Dihydrospinosyn A aglycone] had a T.vaginalis_%inb_Rep1 under setting [1] of 13.89%. The same compound showed a T.vaginalis_Absorbance_Rep1 under setting [2] of 0.967. The T.vaginalis_%inb_Rep2 under setting [3] was 12.58%. Besides, the T.vaginalis_Absorbance_Rep2 under setting [4] is recorded as 0.794.

`COc1cccc2nc3c(OC)cccc3nc12` [Dimethoxyphenazine, 1,6-] gave a T.vaginalis_%inb_Rep1 under setting [1] of 12.87%. Moreover, the T.vaginalis_Absorbance_Rep1 under setting [2] came out at 0.948. Under setting [3], this compound showed a T.vaginalis_%inb_Rep2 of 14.10%. For the same compound, the T.vaginalis_Absorbance_Rep2 under setting [4] is reported as 0.815.

Regarding `CC1=C[C@H]2C(=O)O[C@H]3C[C@@H](C/C=C(\C)[C@@H](O)[C@@H](C)/C=C/C=C4\CO[C@H]([C@@H]1O)[C@@]42O)O[C@@]1(C=C[C@H](C)[C@@H](C2CCCCC2)O1)C3` [Doramectin aglycone], the T.vaginalis_%inb_Rep1 under setting [1] is reported as 13.62%. In addition, under setting [2], the T.vaginalis_Absorbance_Rep1 is 0.962. Moreover, the T.vaginalis_%inb_Rep2 under setting [3] is reported as 12.44%. In addition, the T.vaginalis_Absorbance_Rep2 under setting [4] is listed as 0.792.

Under setting [1], `CO[C@H]1C[C@H](O[C@@H]2/C(C)=C/C[C@@H]3C[C@@H](C[C@]4(C=C[C@H](C)[C@@H](C5CCCCC5)O4)O3)OC(=O)[C@@H]3C=C(C)[C@@H](O)[C@H]4OC/C(=C\C=C\[C@@H]2C)[C@]43O)O[C@@H](C)[C@@H]1O` [Doramectin monosaccharide] had a T.vaginalis_%inb_Rep1 of 13.89%. The T.vaginalis_Absorbance_Rep1 under setting [2] is recorded as 0.967. Under setting [3], this compound yielded a T.vaginalis_%inb_Rep2 of 12.80%. Under setting [4], this compound gave a T.vaginalis_Absorbance_Rep2 of 0.797.

Regarding `CO[C@H]1C[C@H](O[C@H]2[C@H](C)O[C@@H](O[C@@H]3/C(C)=C/C[C@@H]4C[C@@H](C[C@]5(C=C[C@H](C)[C@@H](C6CCCCC6)O5)O4)OC(=O)C4=C[C@H](C)[C@@H](O)[C@H]5OC/C(=C\C=C[C@@H]3C)[C@@]45O)C[C@@H]2OC)O[C@@H](C)[C@@H]1O` [Doramectin, delta2-], the T.vaginalis_%inb_Rep1 under setting [1] came out at 13.79%. Further, the T.vaginalis_Absorbance_Rep1 under setting [2] is 0.965. The T.vaginalis_%inb_Rep2 under setting [3] is 15.04%. For the same compound, under setting [4], the T.vaginalis_Absorbance_Rep2 is on record as 0.828.

Take `CO[C@H]1C[C@H](O[C@H]2[C@H](C)O[C@@H](O[C@@H]3/C(C)=C/C[C@@H]4C[C@@H](C[C@]5(C=C[C@H](C)[C@@H](C6CCCCC6)O5)O4)OC(=O)[C@H]4C=C(C)[C@@H](O)[C@H]5OC/C(=C\C=C\[C@@H]3C)[C@@]45O)C[C@@H]2OC)O[C@@H](C)[C@@H]1O` [Doramectin, epi-]: the T.vaginalis_%inb_Rep1 under setting [1] was determined as 16.13%. This compound also registered a T.vaginalis_Absorbance_Rep1 under setting [2] of 1.02. In addition, under setting [3], the T.vaginalis_%inb_Rep2 is 15.52%. Under setting [4], this compound returned a T.vaginalis_Absorbance_Rep2 of 0.877.

`CO[C@H]1C[C@H](O[C@H]2[C@H](C)O[C@@H](O[C@@H]3/C(C)=C/C[C@@H]4C[C@@H](C[C@]5(C=C[C@H](C)[C@@H](C6CCCCC6)O5)O4)OC(=O)[C@@H]4C=C(C)[C@@H](O)[C@H]5OC/C(=C\C=C\[C@@H]3C)[C@]54O)C[C@@H]2OC)O[C@@H](C)[C@@H]1O` [Doramectin] yielded a T.vaginalis_%inb_Rep1 under setting [1] of 11.20%. This compound also gave a T.vaginalis_Absorbance_Rep1 under setting [2] of 0.917. This compound also showed a T.vaginalis_%inb_Rep2 under setting [3] of 11.21%. Moreover, the T.vaginalis_Absorbance_Rep2 under setting [4] is 0.775.

For the compound `CC1(C)CCC[C@]2(C)[C@@H](CO)C(CO)=CC[C@@H]12` [Drimendiol], under setting [1], the T.vaginalis_%inb_Rep1 was found to be 13.84%. Under setting [2], this compound showed a T.vaginalis_Absorbance_Rep1 of 0.966. This compound also yielded a T.vaginalis_%inb_Rep2 under setting [3] of 11.64%. This compound had a T.vaginalis_Absorbance_Rep2 under setting [4] of 0.781.

Regarding `CC1=CC[C@H]2C(C)(C)CCC[C@]2(C)[C@H]1CO` [Drimenol], the T.vaginalis_%inb_Rep1 under setting [1] worked out at 14.49%. The T.vaginalis_Absorbance_Rep1 under setting [2] amounted to 0.978. This compound came in with a T.vaginalis_%inb_Rep2 under setting [3] of 11.14%. Besides, the T.vaginalis_Absorbance_Rep2 under setting [4] is 0.774.
